Data reported in US10351575B2, “Bicyclic urea, thiourea, guanidine and cyanoguanidine compounds useful for the treatment of pain” (Array BioPharma Inc., priority 2012, dated 2019).

What was measured:
Assay in all cases: KinaseProfiler off-target kinase profiling
Type in all cases: biochemical
Conditions in all cases: 10 μM, ATP near Km
AKT1 = AKT1 (Homo sapiens (Human), UniProt P31749)
How it was run: (§1)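 Compounds were screened at 10 μM in duplicate, with ATP near the Km of each individual kinase. Activity is given as percent of control (POC), averaged over both replicates.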

AKT2 = AKT2 (Homo sapiens (Human), UniProt P31751)
How it was run: as §1

ALK = ALK (Homo sapiens (Human), UniProt Q9UM73)
How it was run: as §1

AMPK(A1/B1/G1) = AMPK(A1/B1/G1) (Homo sapiens (Human), UniProt Q13131)
How it was run: as §1

BLK_m = BLK_m (Mus musculus (Mouse), UniProt P16277)
How it was run: as §1

BTK = BTK (Homo sapiens (Human), UniProt Q06187)
Chain of BTK (Q06187 whole entry): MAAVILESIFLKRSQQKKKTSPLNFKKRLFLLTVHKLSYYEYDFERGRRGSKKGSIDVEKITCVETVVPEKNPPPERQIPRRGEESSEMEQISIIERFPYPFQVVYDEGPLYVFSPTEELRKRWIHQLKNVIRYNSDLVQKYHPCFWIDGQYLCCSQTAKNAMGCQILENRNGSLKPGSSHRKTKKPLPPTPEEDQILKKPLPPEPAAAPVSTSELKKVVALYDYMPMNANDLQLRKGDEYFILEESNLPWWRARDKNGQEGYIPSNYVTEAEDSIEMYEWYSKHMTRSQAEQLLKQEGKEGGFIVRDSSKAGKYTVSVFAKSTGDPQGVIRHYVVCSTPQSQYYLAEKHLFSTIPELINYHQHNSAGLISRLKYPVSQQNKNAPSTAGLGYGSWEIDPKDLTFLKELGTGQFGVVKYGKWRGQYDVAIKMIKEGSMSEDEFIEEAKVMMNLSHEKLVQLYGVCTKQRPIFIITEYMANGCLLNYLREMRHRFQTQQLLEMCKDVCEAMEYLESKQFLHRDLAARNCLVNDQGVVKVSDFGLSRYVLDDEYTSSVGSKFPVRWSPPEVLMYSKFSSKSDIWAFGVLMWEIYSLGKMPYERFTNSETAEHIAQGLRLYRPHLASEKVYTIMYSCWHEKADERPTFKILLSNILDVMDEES
How it was run: as §1

CDK5/p25 = CDK5/p25 (Homo sapiens (Human), UniProt Q00535)
How it was run: as §1

CK1gamma2 = CK1gamma2 (Homo sapiens (Human), UniProt P78368)
How it was run: as §1

CLK3 = CLK3 (Homo sapiens (Human), UniProt P49761)
How it was run: as §1

DCAMKL2 = DCAMKL2 (Homo sapiens (Human), UniProt Q8N568)
How it was run: as §1

DMPK = DMPK (Homo sapiens (Human), UniProt Q09013)
Chain of DMPK (Q09013 whole entry): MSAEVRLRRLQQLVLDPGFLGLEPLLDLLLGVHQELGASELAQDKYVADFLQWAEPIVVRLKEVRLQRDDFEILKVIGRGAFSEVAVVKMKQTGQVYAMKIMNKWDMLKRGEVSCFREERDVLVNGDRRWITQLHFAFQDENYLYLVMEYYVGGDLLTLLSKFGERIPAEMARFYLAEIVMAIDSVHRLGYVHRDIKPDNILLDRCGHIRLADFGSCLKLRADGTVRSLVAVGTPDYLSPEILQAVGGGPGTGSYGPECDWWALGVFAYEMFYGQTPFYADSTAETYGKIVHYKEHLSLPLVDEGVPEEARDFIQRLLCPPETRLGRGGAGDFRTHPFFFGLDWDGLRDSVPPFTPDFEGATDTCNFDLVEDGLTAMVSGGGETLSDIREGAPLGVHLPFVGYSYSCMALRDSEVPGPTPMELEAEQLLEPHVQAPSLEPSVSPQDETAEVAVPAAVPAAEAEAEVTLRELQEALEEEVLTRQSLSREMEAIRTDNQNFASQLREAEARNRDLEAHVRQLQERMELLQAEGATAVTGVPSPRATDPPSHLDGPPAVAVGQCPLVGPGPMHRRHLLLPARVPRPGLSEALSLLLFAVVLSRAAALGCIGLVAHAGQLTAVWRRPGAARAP
How it was run: as §1

EphA3 = EphA3 (Homo sapiens (Human), UniProt P29320)
How it was run: as §1

EphA8 = EphA8 (Homo sapiens (Human), UniProt P29322)
How it was run: as §1

EphB4 = EphB4 (Homo sapiens (Human), UniProt P54760)
How it was run: as §1

Flt1 = Flt1 (Homo sapiens (Human), UniProt P17948)
How it was run: as §1

HIPK1 = HIPK1 (Homo sapiens (Human), UniProt Q86Z02)
How it was run: as §1

IKKalpha = IKKalpha (Homo sapiens (Human), UniProt O15111)
How it was run: as §1

JAK2 = JAK2 (Homo sapiens (Human), UniProt O60674)
How it was run: as §1

LOK = LOK (Homo sapiens (Human), UniProt O94804)
Chain of LOK (O94804 whole entry): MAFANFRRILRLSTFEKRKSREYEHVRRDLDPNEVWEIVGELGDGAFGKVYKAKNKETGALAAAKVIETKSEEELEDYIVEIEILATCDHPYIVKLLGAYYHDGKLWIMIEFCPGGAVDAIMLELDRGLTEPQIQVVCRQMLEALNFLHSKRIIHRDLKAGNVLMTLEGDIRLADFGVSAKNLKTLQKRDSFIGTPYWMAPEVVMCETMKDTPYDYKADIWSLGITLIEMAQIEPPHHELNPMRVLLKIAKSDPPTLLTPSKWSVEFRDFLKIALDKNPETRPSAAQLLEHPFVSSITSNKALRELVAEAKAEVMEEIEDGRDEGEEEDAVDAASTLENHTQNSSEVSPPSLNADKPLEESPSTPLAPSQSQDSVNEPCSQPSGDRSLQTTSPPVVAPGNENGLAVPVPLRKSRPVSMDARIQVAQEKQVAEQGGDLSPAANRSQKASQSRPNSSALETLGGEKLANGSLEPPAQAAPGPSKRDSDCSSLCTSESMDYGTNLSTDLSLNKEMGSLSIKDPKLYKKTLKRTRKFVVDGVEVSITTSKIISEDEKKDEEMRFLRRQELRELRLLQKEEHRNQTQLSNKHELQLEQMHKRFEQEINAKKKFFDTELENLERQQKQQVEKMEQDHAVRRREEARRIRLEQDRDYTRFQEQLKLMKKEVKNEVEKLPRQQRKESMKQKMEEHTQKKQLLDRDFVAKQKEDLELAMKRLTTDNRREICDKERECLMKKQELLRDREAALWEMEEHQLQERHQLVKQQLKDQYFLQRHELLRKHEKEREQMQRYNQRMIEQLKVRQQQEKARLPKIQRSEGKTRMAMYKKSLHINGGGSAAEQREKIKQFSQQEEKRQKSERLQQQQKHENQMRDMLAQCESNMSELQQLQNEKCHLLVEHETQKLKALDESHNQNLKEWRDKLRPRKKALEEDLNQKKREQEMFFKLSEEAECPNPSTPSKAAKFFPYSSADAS
How it was run: as §1

MARK1 = MARK1 (Homo sapiens (Human), UniProt Q9P0L2)
Chain of MARK1 (Q9P0L2 whole entry): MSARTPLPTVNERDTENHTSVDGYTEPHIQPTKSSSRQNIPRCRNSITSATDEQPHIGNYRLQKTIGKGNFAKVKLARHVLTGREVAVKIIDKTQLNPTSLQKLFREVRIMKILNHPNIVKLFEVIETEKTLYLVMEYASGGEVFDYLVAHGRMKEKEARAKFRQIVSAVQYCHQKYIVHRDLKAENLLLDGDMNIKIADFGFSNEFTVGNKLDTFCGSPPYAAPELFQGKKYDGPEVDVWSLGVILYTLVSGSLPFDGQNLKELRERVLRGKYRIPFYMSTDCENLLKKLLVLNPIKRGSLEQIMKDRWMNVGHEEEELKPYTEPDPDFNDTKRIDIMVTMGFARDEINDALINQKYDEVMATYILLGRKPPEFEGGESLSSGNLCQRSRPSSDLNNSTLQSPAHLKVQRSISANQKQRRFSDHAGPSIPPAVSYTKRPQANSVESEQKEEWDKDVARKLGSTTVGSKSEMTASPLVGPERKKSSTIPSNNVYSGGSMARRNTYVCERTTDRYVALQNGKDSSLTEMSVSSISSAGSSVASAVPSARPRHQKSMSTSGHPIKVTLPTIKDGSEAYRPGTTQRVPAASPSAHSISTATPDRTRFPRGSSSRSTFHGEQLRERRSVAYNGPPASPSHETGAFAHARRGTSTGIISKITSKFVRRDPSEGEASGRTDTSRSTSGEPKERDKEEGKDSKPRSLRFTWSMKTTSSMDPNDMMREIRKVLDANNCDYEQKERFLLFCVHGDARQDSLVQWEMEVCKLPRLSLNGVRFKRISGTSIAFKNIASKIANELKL
How it was run: as §1

MEK1 = MEK1 (Homo sapiens (Human), UniProt Q02750)
How it was run: as §1

MKK6 = MKK6 (Homo sapiens (Human), UniProt P52564)
How it was run: as §1

MSK1 = MSK1 (Homo sapiens (Human), UniProt O75582)
How it was run: as §1

MST3 = MST3 (Homo sapiens (Human), UniProt Q9Y6E0)
How it was run: as §1

PKCdelta = PKCdelta (Homo sapiens (Human), UniProt Q05655)
How it was run: as §1

PRKG1alpha = PRKG1alpha (Homo sapiens (Human), UniProt Q13976)
Chain of PRKG1alpha (Q13976 whole entry): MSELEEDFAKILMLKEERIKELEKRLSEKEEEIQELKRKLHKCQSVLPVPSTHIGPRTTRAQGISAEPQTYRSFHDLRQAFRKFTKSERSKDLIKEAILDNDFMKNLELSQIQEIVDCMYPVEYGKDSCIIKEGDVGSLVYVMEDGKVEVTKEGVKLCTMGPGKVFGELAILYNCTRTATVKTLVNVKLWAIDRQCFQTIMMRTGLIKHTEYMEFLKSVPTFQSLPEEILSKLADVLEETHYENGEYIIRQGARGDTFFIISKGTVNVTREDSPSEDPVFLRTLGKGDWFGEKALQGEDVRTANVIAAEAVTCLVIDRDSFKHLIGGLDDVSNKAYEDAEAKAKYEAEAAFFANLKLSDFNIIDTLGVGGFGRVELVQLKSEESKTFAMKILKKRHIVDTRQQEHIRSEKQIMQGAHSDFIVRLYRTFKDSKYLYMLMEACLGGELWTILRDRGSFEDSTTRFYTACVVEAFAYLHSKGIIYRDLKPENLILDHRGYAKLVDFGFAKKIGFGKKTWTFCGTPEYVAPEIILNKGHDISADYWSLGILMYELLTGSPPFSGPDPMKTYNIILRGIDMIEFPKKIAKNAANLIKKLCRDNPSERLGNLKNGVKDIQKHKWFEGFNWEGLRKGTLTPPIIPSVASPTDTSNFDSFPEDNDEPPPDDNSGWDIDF
How it was run: as §1

PRKG1beta = PRKG1beta (Homo sapiens (Human), UniProt Q13976)
How it was run: as §1

Pim-3 = Pim-3 (Homo sapiens (Human), UniProt Q86V86)
How it was run: as §1

Plk1 = Plk1 (Homo sapiens (Human), UniProt P53350)
Chain of Plk1 (P53350 whole entry): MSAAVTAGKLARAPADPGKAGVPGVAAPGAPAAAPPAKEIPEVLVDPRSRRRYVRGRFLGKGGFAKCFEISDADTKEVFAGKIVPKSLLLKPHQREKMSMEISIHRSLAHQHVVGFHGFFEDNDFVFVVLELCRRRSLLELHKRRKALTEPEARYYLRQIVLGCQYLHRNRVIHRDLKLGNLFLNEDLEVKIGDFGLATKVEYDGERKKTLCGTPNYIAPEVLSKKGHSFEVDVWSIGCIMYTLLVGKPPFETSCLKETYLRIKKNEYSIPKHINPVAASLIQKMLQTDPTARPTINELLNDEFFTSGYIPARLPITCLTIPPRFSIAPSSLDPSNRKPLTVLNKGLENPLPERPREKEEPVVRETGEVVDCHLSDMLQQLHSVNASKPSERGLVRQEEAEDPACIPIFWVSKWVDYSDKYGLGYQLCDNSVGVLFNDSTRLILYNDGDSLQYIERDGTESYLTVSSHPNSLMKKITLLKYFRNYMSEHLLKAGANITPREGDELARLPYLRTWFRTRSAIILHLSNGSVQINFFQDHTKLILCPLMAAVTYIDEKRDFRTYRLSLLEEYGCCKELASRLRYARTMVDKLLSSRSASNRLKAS
How it was run: as §1

Plk3 = Plk3 (Homo sapiens (Human), UniProt Q9H4B4)
How it was run: as §1

Rsk3 = Rsk3 (Homo sapiens (Human), UniProt Q15349)
How it was run: as §1

SGK2 = SGK2 (Homo sapiens (Human), UniProt Q9HBY8)
How it was run: as §1

SRC = SRC (Homo sapiens (Human), UniProt P12931)
How it was run: as §1

Syk = Syk (Homo sapiens (Human), UniProt P43405)
How it was run: as §1

TEC Activated = TEC Activated (Homo sapiens (Human), UniProt P42680)
How it was run: as §1

TNK2 = TNK2 (Homo sapiens (Human), UniProt Q07912)
How it was run: as §1

VRK2 = VRK2 (Homo sapiens (Human), UniProt Q86Y07)
How it was run: as §1

WNK3 = WNK3 (Homo sapiens (Human), UniProt Q9BYP7)
How it was run: as §1

p38beta = p38beta (Homo sapiens (Human), UniProt Q15759)
How it was run: as §1

Chain of AKT1 (P31749 whole entry): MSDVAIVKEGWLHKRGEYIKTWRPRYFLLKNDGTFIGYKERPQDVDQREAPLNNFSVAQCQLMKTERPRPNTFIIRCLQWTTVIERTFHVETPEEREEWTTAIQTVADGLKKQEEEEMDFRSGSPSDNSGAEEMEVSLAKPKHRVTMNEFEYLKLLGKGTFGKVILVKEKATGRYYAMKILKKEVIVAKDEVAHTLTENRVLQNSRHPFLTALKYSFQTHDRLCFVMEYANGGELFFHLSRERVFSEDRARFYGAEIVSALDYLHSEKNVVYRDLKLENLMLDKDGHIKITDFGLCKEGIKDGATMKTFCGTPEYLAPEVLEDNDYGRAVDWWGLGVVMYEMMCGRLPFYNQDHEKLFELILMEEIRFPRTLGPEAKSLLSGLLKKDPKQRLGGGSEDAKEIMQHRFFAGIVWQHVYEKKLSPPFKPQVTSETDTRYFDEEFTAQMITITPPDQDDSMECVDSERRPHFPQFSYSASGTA

COCc1ccc2c(c1)C(NC(=O)Nc1c(C)c(-c3cnn(C)c3)nn1-c1ccccc1)COC2 (stereo not drawn) [Example 32, 1-(1′,4-dimethyl-1-phenyl-1H,1′H-[3,4′-bipyrazol]-5-yl)-3-(6-(methoxymethyl)isochroman-4-yl)urea]
Avg. POC (AKT1): 92 POC
Avg. POC (AKT2): 121 POC
Avg. POC (ALK): 127 POC
Avg. POC (AMPK(A1/B1/G1)): 138.5 POC
Avg. POC (BLK_m): 111 POC
Avg. POC (BTK): 119 POC
Avg. POC (CDK5/p25): 106 POC
Avg. POC (CK1gamma2): 101.5 POC
Avg. POC (CLK3): 109 POC
Avg. POC (DCAMKL2): 146 POC
Avg. POC (DMPK): 98.5 POC
Avg. POC (EphA3): 122 POC
Avg. POC (EphA8): 109 POC
Avg. POC (EphB4): 106 POC
Avg. POC (Flt1): 103 POC
Avg. POC (HIPK1): 115 POC
Avg. POC (IKKalpha): 102 POC
Avg. POC (JAK2): 122.5 POC
Avg. POC (LOK): 103.5 POC
Avg. POC (MARK1): 98.5 POC
Avg. POC (MEK1): 102 POC
Avg. POC (MKK6): 134.5 POC
Avg. POC (MSK1): 118 POC
Avg. POC (MST3): 130.5 POC
Avg. POC (PKCdelta): 99 POC
Avg. POC (PRKG1alpha): 84 POC
Avg. POC (PRKG1beta): 80.5 POC
Avg. POC (Pim-3): 112 POC
Avg. POC (Plk1): 108 POC
Avg. POC (Plk3): 103.5 POC
Avg. POC (Rsk3): 92 POC
Avg. POC (SGK2): 123.5 POC
Avg. POC (SRC): 108.5 POC
Avg. POC (Syk): 115 POC
Avg. POC (TEC Activated): 108.5 POC
Avg. POC (TNK2): 132 POC
Avg. POC (VRK2): 100.5 POC
Avg. POC (WNK3): 103.5 POC
Avg. POC (p38beta): 119 POC
